From patent US20090269394A1, “METHODS AND COMPOSITIONS FOR TREATING ONCHOMYCOSIS” (priority 2008, published 2009)
Values after ≈ are worked out from the molar mass of the structure shown. Where two headings read alike, the source gives them in different places.

Experiments:
[1] = system: Candida albicans isolates; test: MIC/MFC microtiter broth dilution; assay type: cell-based; details: NB-002 as μg CPC/ml
[2] = system: Trichophyton mentagrophytes; test: MIC/MFC microtiter broth dilution; assay type: cell-based; details: for MIC90 / MIC50: Trichophyton mentagrophytes; for MFC50 / MFC90 / MIC range: n = 14 isolates, NB-002 as μg CPC/ml
Epidermophyton floccosum [3] = test: MIC/MFC microtiter broth dilution; assay type: cell-based; details: n = 6 isolates; NB-002 as μg CPC/ml
[4] = cited from earlier work
Trichophyton tonsurans = test: MIC/MFC microtiter broth dilution; assay type: cell-based
Microsporum canis = test: MIC/MFC microtiter broth dilution; assay type: cell-based; details: M. canis n = 10 (tinea capitis species)
T. violaceum = test: MIC against species that cause tinea capitis; assay type: cell-based; details: T. violaceum n = 10
M. audouinii = test: MIC against species that cause tinea capitis; assay type: cell-based; details: M. audouinii n = 10
Alternaria spp. = test: MIC against rare onychomycosis pathogens (CLSI M 38-A); assay type: cell-based; details: 3 isolates; NB-002 as μg CPC/ml
Text: (§1) Methods: All fungi were from patients, many of which had onychomycosis or another tinea infection.

Scopulariopsis spp. = test: as above; assay type: cell-based; details: 5 isolates; NB-002 as μg CPC/ml
Text: as §1

Curvularia spp. = test: as above; assay type: cell-based; details: 3 isolates; NB-002 as μg CPC/ml
Text: as §1

Aspergillus spp. = test: as above; assay type: cell-based; details: 5 isolates; NB-002 as μg CPC/ml
Text: as §1

Scedosporium spp. = test: as above; assay type: cell-based; details: 5 isolates; NB-002 as μg CPC/ml
Text: as §1

Phoma sp. = test: as above; assay type: cell-based; details: 3 isolates; NB-002 as μg CPC/ml
Text: as §1

Trichophyton soundanense = test: as above; assay type: cell-based; details: 3 isolates; NB-002 as μg CPC/ml
Text: as §1

Paecilomyces spp. = test: as above; assay type: cell-based; details: 4 isolates; NB-002 as μg CPC/ml
Text: as §1

Chaetomium spp. = test: as above; assay type: cell-based; details: 3 isolates; NB-002 as μg CPC/ml
Text: as §1

Epicoccum nigrum = test: as above; assay type: cell-based; details: 3 isolates; NB-002 as μg CPC/ml
Text: as §1

Scytalydium spp. = test: as above; assay type: cell-based; details: 10 isolates; NB-002 as μg CPC/ml
Text: as §1

Trichophyton verrucosum = test: as above; assay type: cell-based; details: 3 isolates; NB-002 as μg CPC/ml
Text: as §1

[5] = system: Trichophyton mentagrophytes; test: microbe, parasite or virus in culture; assay type: cell-based
Procedure: (§2) Phenotypically resistant isolates were tested for MICs and compared to parental MICs.

Epidermophyton floccosum [6] = test: microbe, parasite or virus in culture; assay type: cell-based; details: read-out: Final MIC
Procedure: as §2

Trichophyton rubrum [7] = test: microbe, parasite or virus in culture; assay type: cell-based
Procedure: as §2

Trichophyton rubrum [8] = assay type: cell-based; details: 10^7 conidia plated; NBD031-b; drug plate 0.125 μg/ml
T. rubrum = test: Time-kill experiments on mycelia and microconidia; assay type: cell-based, Trichophyton rubrum
Procedure: Time-kill experiments. […] Part of the conidial suspension was pelleted and resuspended in RPMI 1640 medium and grown for 16-18 hours overnight at room temperature to allow germination of microconidia. After germination, the hyphae were collected by centrifugation and resuspended in distilled water. […] Colony-forming units were counted after four days of incubation at 35° C.

Acremonium spp. = test: MIC against rare onychomycosis pathogens (CLSI M 38-A); assay type: cell-based; details: 5 isolates; NB-002 as μg CPC/ml
Text: as §1

Fusarium spp. = test: as above; assay type: cell-based; details: 10 isolates; NB-002 as μg CPC/ml
Text: as §1

[9] = Azole-Resistant isolates (n = 24)
[10] = Azole-Susceptible isolates (n = 10)
[11] = Candida albicans, Azole-Resistant isolates (n = 24), read-out: MIC90
[12] = Candida albicans, Azole-Susceptible isolates (n = 10), read-out: MIC90
[13] = T. tonsurans n = 10 (tinea capitis species)
[14] = read-out: Final MIC, isolate NBD012-a, selected on NB-002 drug plate 8 μg/ml
[15] = read-out: Final MIC, isolate NBD012-b, selected on NB-002 drug plate 16 μg/ml
[16] = read-out: Final MIC, isolate NBD012-c, selected on NB-002 drug plate 32 μg/ml
[17] = read-out: Final MIC, isolate NBD012-d, selected on terbinafine drug plate 0.0625 μg/ml
[18] = read-out: Final MIC, isolate NBD013-a, selected on itraconazole drug plate […]
[19] = read-out: Final MIC, isolate NBD014-a, selected on NB-002 drug plate 32 μg/ml
[20] = read-out: Final MIC, isolate NBD031-a, selected on NB-002 drug plate 16 μg/ml
[21] = read-out: Final MIC, isolate NBD031-b, selected on itraconazole drug plate 0.125 μg/ml
[22] = read-out: Final MIC, isolate NBD031-c, selected on terbinafine drug plate 0.125 μg/ml

Structure (SMILES) | MFC90 [1, 9] [µg/mL] | MFC90 [1, 10] [µg/mL] | MIC90 [1, 11] [µg/mL] | MIC90 [1, 12] [µg/mL] | MIC90 [2] [µg/mL] | MIC50 ([2]; read-out: MIC50) [µg/mL] | MFC50 [2] [µg/mL] | MFC90 [2] [µg/mL] | MIC range [2] [µg/mL] | MIC range (Epidermophyton floccosum [3]) [µg/mL] | MIC range (Alternaria spp.) [µg/mL] | MIC range (Curvularia spp.) [µg/mL] | MIC range (Aspergillus spp.) [µg/mL] | MIC range (Phoma sp.) [µg/mL] | MIC range (Trichophyton soundanense) [µg/mL] | MIC range (Chaetomium spp.) [µg/mL] | MIC range (Epicoccum nigrum) [µg/mL] | MIC range (Trichophyton verrucosum) | also measured
OC(Cn1cncn1)(Cn1cncn1)c1ccc(F)cc1F [Fluconazole] | >64 | >64 | > 64 | 0.5 (≈ 1.63 µM) | – | – | – | – | – | – | – | – | – | – | – | – | – | – | –
Clc1ccc(COC(Cn2ccnc2)c2ccc(Cl)cc2Cl)cc1 (stereo not shown) [Econazole] | – | – | – | – | 0.25 (≈ 0.655 µM) | 0.25 (≈ 0.655 µM) | 8 (≈ 21 µM) | >16 | 0.125 to 0.25 | 0.0625 to 0.125 | – | – | – | – | – | – | – | – | MFC Range (Epidermophyton floccosum [3]): 0.0625 to 4 µg/mL
CN(C/C=C/C#CC(C)(C)C)Cc1cccc2ccccc12.Cl [Terbinafine hydrochloride] | – | – | – | – | – | – | – | – | – | – | – | – | – | – | – | – | – | – | solubility in ethanol ([4]; in words): soluble; solubility in methanol and dichloromethane ([4]; in words): freely soluble; solubility in water ([4]; in words): slightly soluble
COC1=CC(=O)C[C@@H](C)[C@]12Oc1c(Cl)c(OC)cc(OC)c1C2=O [Griseofulvin] | – | – | – | – | 2 (≈ 5.67 µM) | 0.5 (≈ 1.42 µM) | 8 (≈ 22.7 µM) | >16 | 0.25 to 4 | 1 to 2 | – | – | – | – | – | – | – | – | MIC range (Trichophyton tonsurans; T. tonsurans (n = 6), NB-002 as μg CPC/ml): 0.5 to 1 µg/mL; MIC50 (Trichophyton tonsurans; [13]): 0.5 µg/mL (≈ 1.42 µM); MIC90 (Trichophyton tonsurans; [13]): 1 µg/mL (≈ 2.83 µM); MIC range (Trichophyton tonsurans; T. tonsurans n = 10 (tinea capitis species), in µg/mL): 0.5-1.0; MIC50 (Microsporum canis): 0.25 µg/mL (≈ 0.709 µM); MIC90 (Microsporum canis): 0.5 µg/mL (≈ 1.42 µM); MIC range (Microsporum canis; in µg/mL): 0.25-0.5; MIC50 (T. violaceum): 4 µg/mL (≈ 11.3 µM); MIC90 (T. violaceum): 4 µg/mL (≈ 11.3 µM); MIC range (T. violaceum; in µg/mL): 1.0-8.0; MIC50 (M. audouinii): 0.25 µg/mL (≈ 0.709 µM); MIC90 (M. audouinii): 1 µg/mL (≈ 2.83 µM); MIC range (M. audouinii; in µg/mL): 0.12-1.0; MFC Range (Epidermophyton floccosum [3]): 1 to 16 µg/mL
C[C@@H]1[C@H](O)[C@@H](C)/C=C/C=C/C=C/C=C/C=C/C=C/C=C/[C@H](O[C@@H]2O[C@H](C)[C@@H](O)[C@H](N)[C@@H]2O)C[C@@H]2O[C@](O)(C[C@@H](O)C[C@@H](O)[C@H](O)CC[C@@H](O)C[C@@H](O)CC(=O)O[C@H]1C)C[C@H](O)[C@H]2C(=O)O [Amphotericin B] | 4 (≈ 4.33 µM) | 2 (≈ 2.16 µM) | – | – | – | – | – | – | – | – | 1 (≈ 1.08 µM) | 0.125 to 1 | 1 to 4 | 0.5 to 2 | 0.125 to 0.25 | 0.5 to 4 | 0.25 to 1 | 0.125 to 0.25 µg/mL | MIC90 [1, 9]: 2 µg/mL (≈ 2.16 µM); MIC90 [1, 10]: 2 µg/mL (≈ 2.16 µM); MIC range (Scopulariopsis spp.): >16 µg/mL; MIC range (Scedosporium spp.): >16 µg/mL; MIC range (Paecilomyces spp.): >16 µg/mL; MIC range (Scytalydium spp.): 0.5 to 1 µg/mL
CCC(C)n1ncn(-c2ccc(N3CCN(c4ccc(OCC5COC(Cn6cncn6)(c6ccc(Cl)cc6Cl)O5)cc4)CC3)cc2)c1=O (stereo not shown) [Itraconazole] | >16 | >16 | > 16 | 0.5 (≈ 0.709 µM) | 0.5 (≈ 0.709 µM) | – | 8 (≈ 11.3 µM) | >16 | 0.0625 to 0.5 | 0.125 to 0.5 | 0.25 to 0.5 | 0.125 to 0.25 | 0.06 to 1 | 0.06 to 0.5 | 0.125 to 0.25 | 0.5 to 1 | 0.25 to 0.5 | 0.06 to 0.125 µg/mL | MIC [5, 14]: 0.0625 µg/mL (≈ 0.0886 µM); MIC [5, 15]: 0.0625 µg/mL (≈ 0.0886 µM); MIC [5, 16]: 0.0625 µg/mL (≈ 0.0886 µM); MIC [5, 17]: 0.0625 µg/mL (≈ 0.0886 µM); MIC [5, 18]: 0.125 µg/mL (≈ 0.177 µM); MIC [5, 19]: 0.0625 µg/mL (≈ 0.0886 µM); MIC (Epidermophyton floccosum [6]): 0.25 µg/mL (≈ 0.354 µM); MIC (Trichophyton rubrum [7]; [20]): 0.0625 µg/mL (≈ 0.0886 µM); MIC (Trichophyton rubrum [7]; [21]): 0.0625 µg/mL (≈ 0.0886 µM); MIC (Trichophyton rubrum [7]; [22]): 0.0313 µg/mL (≈ 0.0444 µM); # CFU recovered (Trichophyton rubrum [8]): 2; MIC50 [2]: 0.125 µg/mL (≈ 0.177 µM); reduction of colony counts / activity on mycelia and microconidia (T. rubrum; 16×MIC, up to 24 hours, nongrowth conditions (FIG. 10)): no activity; MIC range (Acremonium spp.): >8 µg/mL
Cc1cc(C2CCCCC2)n(O)c(=O)c1 [Ciclopirox] | >32 | >32 | 1 (≈ 4.82 µM) | 4 (≈ 19.3 µM) | 1 (≈ 4.82 µM) | 0.5 (≈ 2.41 µM) | 1 (≈ 4.82 µM) | 16 (≈ 77.2 µM) | 0.125 to 1 | 0.5 (≈ 2.41 µM) | 0.25 to 0.5 | 0.5 to 1 | 0.5 to 2 | 0.5 to 1 | 0.125 to 0.25 | 0.25 to 0.5 | 0.125 to 2 | <=0.06-0.125 ug/ml | MIC [5, 14]: 4 µg/mL (≈ 19.3 µM); MIC [5, 15]: 4 µg/mL (≈ 19.3 µM); MIC [5, 16]: 4 µg/mL (≈ 19.3 µM); MIC [5, 17]: 4 µg/mL (≈ 19.3 µM); MIC [5, 18]: 4 µg/mL (≈ 19.3 µM); MIC [5, 19]: 4 µg/mL (≈ 19.3 µM); MIC (Epidermophyton floccosum [6]): 4 µg/mL (≈ 19.3 µM); MIC (Trichophyton rubrum [7]; [20]): 4 µg/mL (≈ 19.3 µM); MIC (Trichophyton rubrum [7]; [21]): 4 µg/mL (≈ 19.3 µM); MIC (Trichophyton rubrum [7]; [22]): 4 µg/mL (≈ 19.3 µM); reduction in colony counts (T. rubrum; 16×MIC or 8 μg/ml, after 8 hours, nongrowing mycelia (not microconidia), isolate NBD032): 3 log; activity against the conidial form (T. rubrum; 16×MIC, up to 24 hours, nongrowth conditions): no activity; MIC range (Fusarium spp.): 1 to 16 µg/mL; MIC range (Scopulariopsis spp.): 0.5 to 2 µg/mL; MIC range (Scedosporium spp.): 0.5 to 8 µg/mL; MIC range (Paecilomyces spp.): 8 to 16 µg/mL; MIC range (Acremonium spp.): 0.5 to 4 µg/mL; MIC range (Scytalydium spp.): 0.5 to 1 µg/mL
Clc1ccc(COC(Cn2ccnc2)c2ccc(Cl)cc2Cl)c(Cl)c1 (stereo not shown) [miconazole] | – | – | – | – | – | – | – | – | – | – | – | – | – | – | – | – | – | – | Ethanol Solubility [4]: 94 mg/mL; Log P [4]: 6.1; Soybean Solubility [4]: 74 mg/mL; pKa [4]: 6.67
